The text below walks through data of BindingDB's records for doi:10.1021/jm801643b (Vanderbilt University, 2009).

SMILES strings stand for the structures.

In this assay the target is Sterol 14-alpha demethylase (Trypanosoma cruzi (strain CL Brener), UniProt Q7Z1V1). The experiment in a line: Spectral Titration of TCCYP51. The conditions noted are these: pH 7.4; 24 °C. As to the method: As a cysteine-coordinated hemoprotein, sterol 14-alpha-demethylase responds spectrally to any perturbations in the area surrounding the heme iron. These spectral responses can be used to estimate the apparent dissociation constants (Kd) of the enzyme/ligand complexes. […] The tested compounds were added in 1 ul aliquots to the test cuvette until the maximum in spectral response was reached. Equal volumes of DMSO were added to the reference cuvette. The apparent Kd values were determined from the equilibrium titration curves by plotting absorbance changes against the concentration of free ligand and fitting the data to a rectangular hyperbola using SigmaPlot Statistics.
Chain of Sterol 14-alpha demethylase (Q7Z1V1 whole entry): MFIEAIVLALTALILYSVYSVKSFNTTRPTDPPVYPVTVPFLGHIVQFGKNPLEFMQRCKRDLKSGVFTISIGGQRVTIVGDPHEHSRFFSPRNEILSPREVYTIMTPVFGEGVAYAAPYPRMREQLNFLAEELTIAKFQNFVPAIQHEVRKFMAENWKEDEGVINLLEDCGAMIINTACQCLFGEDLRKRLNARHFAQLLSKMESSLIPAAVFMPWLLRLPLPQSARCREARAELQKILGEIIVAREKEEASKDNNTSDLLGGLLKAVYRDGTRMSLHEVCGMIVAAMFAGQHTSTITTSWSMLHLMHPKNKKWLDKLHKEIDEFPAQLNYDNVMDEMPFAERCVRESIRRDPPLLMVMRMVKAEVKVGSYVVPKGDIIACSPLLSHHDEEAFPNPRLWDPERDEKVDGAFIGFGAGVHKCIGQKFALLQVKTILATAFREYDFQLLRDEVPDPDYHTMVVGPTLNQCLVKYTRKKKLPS
On to `COc1ccc2c(c1)c(CC(=O)NCc1ccc(C(F)(F)F)nc1)c(C)n2C(=O)c1ccc(Cl)cc1` [Indomethacin-amide derivative, 19], for which the Kd – broadly, the free concentration of one partner at which half of the binding sites on the other are occupied at equilibrium, for simple one-to-one binding – amounted to 560 nM. With `COc1ccc2c(c1)c(CC(=O)Nc1cccnc1C)c(C)n2C(=O)c1ccc(Cl)cc1` [Indomethacin-amide derivative, 13], the Kd came out at 7600 nM. The figure for `COc1ccc2c(c1)c(CC(=O)NCc1ccc(Cl)nc1)c(C)n2C(=O)c1ccc(Cl)cc1` [Indomethacin-amide derivative, 18] is 260 nM.
